Laboratory results published in patent US20260062387A1, “SALT-INDUCIBLE KINASE INHIBITOR COMPOUND AND PHARMACEUTICAL COMPOSITION INCLUDING THE SAME” (MITSUBISHI TANABE PHARMA CORPORATION, priority 2023, published 2026).

What was measured:
Format in all cases: biochemical
GST-tagged SIK1 = GST-tagged SIK1 (Homo sapiens (Human), UniProt P57059); assay: SIK1 inhibition test (ADP-Glo Max Assay); conditions: enzyme 20 nM, AMARA Peptide 200 μM, ATP 1 mM, 2 hours room temperature
Summary of the method: (§1)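 ADP formed was detected by luciferase luminescence after a 2 h room-temperature reaction with 1 mM ATP, 5 mM MgCl2 and AMARA peptide at 200 μM (SIK1, SIK2) or 100 μM (SIK3). Final GST-enzyme levels were 20 nM SIK1, 3 nM SIK2 and 100 nM SIK3. IC50 came from 16-point concentration-response data.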

GST-tagged SIK2 = GST-tagged SIK2 (Homo sapiens (Human), UniProt Q9H0K1); assay: SIK2 inhibition test (ADP-Glo Max Assay); conditions: enzyme 3 nM, AMARA Peptide 200 μM, ATP 1 mM, 2 hours room temperature
Chain of GST-tagged SIK2 (Q9H0K1 whole entry): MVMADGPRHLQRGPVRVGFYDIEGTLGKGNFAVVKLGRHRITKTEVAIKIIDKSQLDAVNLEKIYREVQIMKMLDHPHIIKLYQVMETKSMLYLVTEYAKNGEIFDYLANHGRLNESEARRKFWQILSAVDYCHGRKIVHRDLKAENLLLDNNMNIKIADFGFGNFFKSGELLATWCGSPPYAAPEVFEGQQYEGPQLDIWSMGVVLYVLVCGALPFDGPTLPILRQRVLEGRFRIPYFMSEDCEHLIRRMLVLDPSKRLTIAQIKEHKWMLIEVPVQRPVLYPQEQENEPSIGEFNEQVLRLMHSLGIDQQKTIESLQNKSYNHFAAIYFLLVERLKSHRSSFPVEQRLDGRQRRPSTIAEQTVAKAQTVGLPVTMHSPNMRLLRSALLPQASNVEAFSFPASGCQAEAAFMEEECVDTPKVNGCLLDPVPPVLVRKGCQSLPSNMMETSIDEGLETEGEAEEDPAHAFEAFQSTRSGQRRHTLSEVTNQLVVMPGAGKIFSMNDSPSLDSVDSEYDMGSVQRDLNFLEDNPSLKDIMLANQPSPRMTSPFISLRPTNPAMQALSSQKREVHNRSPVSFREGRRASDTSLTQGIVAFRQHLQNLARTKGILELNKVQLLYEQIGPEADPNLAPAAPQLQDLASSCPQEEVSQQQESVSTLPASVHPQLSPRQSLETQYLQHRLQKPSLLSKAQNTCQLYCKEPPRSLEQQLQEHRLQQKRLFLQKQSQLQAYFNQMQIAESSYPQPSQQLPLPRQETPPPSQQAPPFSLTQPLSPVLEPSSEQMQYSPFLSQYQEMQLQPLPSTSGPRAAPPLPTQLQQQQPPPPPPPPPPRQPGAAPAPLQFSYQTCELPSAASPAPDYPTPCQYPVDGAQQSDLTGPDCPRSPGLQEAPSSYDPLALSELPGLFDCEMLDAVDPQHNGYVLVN
Summary of the method: as §1

GST-tagged SIK3 = GST-tagged SIK3 (Homo sapiens (Human), UniProt Q9Y2K2); assay: SIK3 inhibition test (ADP-Glo Max Assay); conditions: enzyme 100 nM, AMARA Peptide 100 μM, ATP 1 mM, 2 hours room temperature
Chain of GST-tagged SIK3 (Q9Y2K2 whole entry): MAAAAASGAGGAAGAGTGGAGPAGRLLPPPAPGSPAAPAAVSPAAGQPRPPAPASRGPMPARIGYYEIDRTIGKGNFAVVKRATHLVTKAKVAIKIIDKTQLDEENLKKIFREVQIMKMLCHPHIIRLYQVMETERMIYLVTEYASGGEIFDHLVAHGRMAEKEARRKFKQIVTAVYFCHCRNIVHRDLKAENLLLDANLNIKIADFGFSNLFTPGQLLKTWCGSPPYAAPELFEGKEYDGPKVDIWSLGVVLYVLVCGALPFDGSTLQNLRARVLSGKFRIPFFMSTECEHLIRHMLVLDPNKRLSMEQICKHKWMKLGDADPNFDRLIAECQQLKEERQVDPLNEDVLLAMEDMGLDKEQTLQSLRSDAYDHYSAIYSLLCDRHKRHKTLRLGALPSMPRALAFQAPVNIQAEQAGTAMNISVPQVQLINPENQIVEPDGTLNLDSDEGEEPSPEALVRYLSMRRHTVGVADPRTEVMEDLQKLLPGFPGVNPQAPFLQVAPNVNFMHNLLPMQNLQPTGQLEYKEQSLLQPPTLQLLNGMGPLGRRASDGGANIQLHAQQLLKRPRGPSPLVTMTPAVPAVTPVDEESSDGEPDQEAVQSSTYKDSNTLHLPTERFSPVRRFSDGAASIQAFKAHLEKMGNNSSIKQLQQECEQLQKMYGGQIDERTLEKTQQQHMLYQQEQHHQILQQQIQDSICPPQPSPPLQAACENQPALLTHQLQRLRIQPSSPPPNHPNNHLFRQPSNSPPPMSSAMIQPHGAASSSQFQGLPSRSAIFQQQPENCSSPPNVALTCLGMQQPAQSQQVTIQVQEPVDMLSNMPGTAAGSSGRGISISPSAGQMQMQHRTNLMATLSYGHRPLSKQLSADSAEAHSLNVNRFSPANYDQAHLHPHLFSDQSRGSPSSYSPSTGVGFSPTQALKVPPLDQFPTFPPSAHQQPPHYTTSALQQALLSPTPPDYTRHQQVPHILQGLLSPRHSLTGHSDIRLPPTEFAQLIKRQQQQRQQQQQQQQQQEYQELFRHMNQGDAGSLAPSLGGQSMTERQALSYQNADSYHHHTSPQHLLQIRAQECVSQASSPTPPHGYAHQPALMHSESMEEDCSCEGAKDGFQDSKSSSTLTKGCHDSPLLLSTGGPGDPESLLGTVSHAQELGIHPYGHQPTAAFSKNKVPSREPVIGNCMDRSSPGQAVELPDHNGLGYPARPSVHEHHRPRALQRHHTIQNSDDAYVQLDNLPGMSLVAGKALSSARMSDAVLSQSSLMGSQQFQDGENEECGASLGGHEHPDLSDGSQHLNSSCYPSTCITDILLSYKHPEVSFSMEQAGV
Summary of the method: as §1

Chain of GST-tagged SIK1 (P57059 whole entry): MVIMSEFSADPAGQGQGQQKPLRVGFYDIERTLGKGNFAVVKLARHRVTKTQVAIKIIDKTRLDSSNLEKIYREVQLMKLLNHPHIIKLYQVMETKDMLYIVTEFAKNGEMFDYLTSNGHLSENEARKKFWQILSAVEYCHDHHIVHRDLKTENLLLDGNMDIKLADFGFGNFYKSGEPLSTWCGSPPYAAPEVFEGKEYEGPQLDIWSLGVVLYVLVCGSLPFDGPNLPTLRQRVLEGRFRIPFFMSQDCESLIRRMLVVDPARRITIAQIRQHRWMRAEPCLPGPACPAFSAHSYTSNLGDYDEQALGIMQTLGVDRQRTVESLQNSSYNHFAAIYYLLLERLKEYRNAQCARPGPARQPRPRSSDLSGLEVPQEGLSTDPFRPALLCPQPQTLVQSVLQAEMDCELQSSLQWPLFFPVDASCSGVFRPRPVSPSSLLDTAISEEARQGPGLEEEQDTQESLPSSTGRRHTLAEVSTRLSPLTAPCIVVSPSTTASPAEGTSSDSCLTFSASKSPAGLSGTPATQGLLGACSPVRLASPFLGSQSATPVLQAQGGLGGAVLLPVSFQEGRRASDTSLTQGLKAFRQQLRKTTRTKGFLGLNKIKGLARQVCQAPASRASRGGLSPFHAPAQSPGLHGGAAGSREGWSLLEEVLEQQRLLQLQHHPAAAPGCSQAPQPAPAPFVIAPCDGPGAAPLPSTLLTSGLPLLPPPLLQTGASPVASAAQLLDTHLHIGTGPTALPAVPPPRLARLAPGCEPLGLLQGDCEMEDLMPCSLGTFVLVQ

| SMILES | IC50 (GST-tagged SIK1) | IC50 (GST-tagged SIK2) | IC50 (GST-tagged SIK3) |
| --- | --- | --- | --- |
| COc1cc(-c2c3c(OCCCO)cc(-c4cnn(C)c4)cc3nn2C)cc(OC(F)F)c1C(=O)N1CC(O)(C(F)(F)F)C1 [Example 28, [2-(difluoromethoxy)-4-[4-(3-hydroxypropoxy)-2-methyl-6-(1-methylpyrazol-4-yl)indazol-3-yl]-6-methoxyphenyl]-[3-Hydroxy-3-(trifluoromethyl)azetidin-1-yl]methanone] | 7.3 nM | 4.7 nM | 13.6 nM |
| COc1cc(-c2c3c(OCC4CC4)cc(-c4cnn(C)c4)cc3nn2C)cc(OC(F)F)c1C(=O)N1CC(O)(C(F)(F)F)C1 [Example 29, [4-[4-(cyclopropylmethoxy)-2-methyl-6-(1-methylpyrazol-4-yl)indazol-3-yl]-2-(difluoromethoxy)-6-methoxyphenyl]-[3-hydroxy-3-(trifluoromethyl)azetidin-1-yl]methanone] | 8.6 nM | 10.3 nM | 13.2 nM |
| COc1cc(-c2c3c(OCC(F)(F)F)cc(-c4cnn(C)c4)cc3nn2C)cc(OC(F)F)c1C(=O)N1CC(O)(C(F)(F)F)C1 [Example 30, [2-(difluoromethoxy)-6-methoxy-4-[2-methyl-6-(1-methylpyrazol-4-yl)-4-(2,2,2-trifluoroethoxy)indazol-3-yl]phenyl]-[3-hydroxy-3-(trifluoromethyl)azetidin-1-yl]methanone] | 5.1 nM | 6.6 nM | 3.6 nM |
| COc1cc(-c2c3c(C#N)cc(-c4cnn(CC(F)F)c4)cc3nn2C)cc(OC(F)F)c1C(=O)N[C@@H]1C[C@@H]1F [Example 31, 4-[4-cyano-6-[1-(2,2-difluoroethyl)pyrazol-4-yl]-2-methylindazol-3-yl]-2-(difluoromethoxy)-N-[(1R, 2S)-2-fluorocyclopropyl]-6-methoxybenzamide] | 3.7 nM | 3.3 nM | 7.8 nM |
| COc1cc(-c2c3c(C#N)cc(-c4cnn(CC5CC5)c4)cc3nn2C)cc(OC(F)F)c1C(=O)N[C@@H]1C[C@@H]1F [Example 32, 4-[4-cyano-6-[1-(cyclopropylmethyl)pyrazol-4-yl]-2-methylindazol-3-yl]-2-(difluoromethoxy)-N-[(1R, 2S)-2-fluorocyclopropyl]-6-methoxybenzamide] | 5 nM | 4.5 nM | 8.9 nM |
| COc1cc(-c2c3c(C#N)cc(-c4cnn(C(C)C)c4)cc3nn2C)cc(OC(F)F)c1C(=O)N[C@@H]1C[C@@H]1F [Example 33, 4-[4-cyano-2-methyl-6-(1-propan-2-ylpyrazol-4-yl)indazol-3-yl]-2-(difluoromethoxy)-N-[(1R,2S)-2-fluorocyclopropyl]-6-methoxybenzamide] | 4.6 nM | 2.6 nM | 8.5 nM |
| COc1cc(-c2c3c(OCc4cccnc4)cc(-c4cnn(C)c4)cc3nn2C)cc(OC(F)F)c1C(=O)N1CC(O)(C(F)(F)F)C1 [Example 34, [2-(difluoromethoxy)-6-methoxy-4-[2-methyl-6-(1-methylpyrazol-4-yl)-4-(pyridin-3-ylmethoxy)indazol-3-yl]phenyl]-[3-hydroxy-3-(trifluoromethyl)azetidin-1-yl]methanone] | 0.4 nM | 1 nM | 2.9 nM |
| COc1cc(-c2c3c(OCc4ccncc4)cc(-c4cnn(C)c4)cc3nn2C)cc(OC(F)F)c1C(=O)N1CC(O)(C(F)(F)F)C1 [Example 35, [2-(difluoromethoxy)-6-methoxy-4-[2-methyl-6-(1-methylpyrazol-4-yl)-4-(pyridin-4-ylmethoxy)indazol-3-yl]phenyl]-[3-hydroxy-3-(trifluoromethyl)azetidin-1-yl]methanone] | 1.9 nM | 3 nM | 12.9 nM |
| COc1cc(-c2c3c(C#N)cc(-c4cnn(C)c4)cc3nn2C)cc(OC(F)F)c1C(=O)N1CC(N)(C(F)(F)F)C1 [Example 36, 3-[4-[3-amino-3-(trifluoromethyl)azetidin-1-carbonyl]-3-(difluoromethoxy)-5-methoxyphenyl]-2-methyl-6-(1-methylpyrazol-4-yl)indazole-4-carbonitrile] | 12.5 nM | 15.4 nM | 10.2 nM |
| COc1cc(-c2c3c(OC)cc(-c4cnn(C)c4)cc3nn2C)cc(OC(F)F)c1C(=O)N1CC(O)(C(F)F)C1 [Example 37, [2-(difluoromethoxy)-6-methoxy-4-[4-methoxy-2-methyl-6-(1-methylpyrazol-4-yl)indazol-3-yl]phenyl]-[3-(difluoromethyl)-3-hydroxyazetidin-1-yl]methanone] | 7.9 nM | 8.3 nM | 12.9 nM |
| COc1cc(-c2c3c(C(F)F)cc(-c4cnn(C)c4)cc3nn2C)cc(OC(F)F)c1C(=O)N1CC(O)(C(F)F)C1 [Example 38, [2-(difluoromethoxy)-4-[4-(difluoromethyl)-2-methyl-6-(1-methylpyrazol-4-yl)indazol-3-yl]-6-methoxyphenyl]-[3-(difluoromethyl)-3-hydroxyazetidin-1-yl]methanone] | 16.8 nM | 13.8 nM | 10.1 nM |
| COc1cc(-c2c3c(C#N)cc(-c4cnn(C)c4)cc3nn2C)cc(OC(F)F)c1C(=O)N1CC(C#N)(C(F)F)C1 [Example 39, 3-[4-[3-cyano-3-(difluoromethyl)azetidin-1-carbonyl]-3-(difluoromethoxy)-5-methoxyphenyl]-2-methyl-6-(1-methylpyrazol-4-yl)indazole-4-carbonitrile] | 16.2 nM | 18.2 nM | 9.4 nM |
| COc1cc(-c2c3c(C#N)cc(/C=C/c4cnn(C)c4)cc3nn2C)cc(OC(F)F)c1C(=O)N[C@@H]1C[C@@H]1F [Example 40, 4-[4-cyano-2-methyl-6-[(E)-2-(1-methylpyrazol-4-yl)ethenyl]indazol-3-yl]-2-(difluoromethoxy)-N-[(1R,2S)-2-fluorocyclopropyl]-6-methoxybenzamide] | 4.9 nM | 3.7 nM | 2.1 nM |
| COc1cc(-c2c3c(OCC(F)F)cc(-c4cnn(C)c4)cc3nn2C)cc(OC(F)F)c1C(=O)N1CC(O)(C(F)(F)F)C1 [Example 41, [4-[4-(2,2-difluoroethoxy)-2-methyl-6-(1-methylpyrazol-4-yl)indazol-3-yl]-2-(difluoromethoxy)-6-methoxyphenyl]-[3-hydroxy-3-(trifluoromethyl)azetidin-1-yl]methanone] | 1.3 nM | 7.6 nM | 5.3 nM |
| CCOc1cc(-c2cnn(C)c2)cc2nn(C)c(-c3cc(OC)c(C(=O)N4CC(O)(C(F)(F)F)C4)c(OC(F)F)c3)c12 [Example 42, [2-(difluoromethoxy)-4-[4-ethoxy-2-methyl-6-(1-methylpyrazol-4-yl)indazol-3-yl]-6-methoxyphenyl]-[3-hydroxy-3-(trifluoromethyl)azetidin-1-yl]methanone] | 2 nM | 12.8 nM | 10.5 nM |
| COc1cc(-c2c3c(OC(C)C)cc(-c4cnn(C)c4)cc3nn2C)cc(OC(F)F)c1C(=O)N1CC(O)(C(F)(F)F)C1 [Example 43, [2-(difluoromethoxy)-6-methoxy-4-[2-methyl-6-(1-methylpyrazol-4-yl)-4-propan-2-yloxyindazol-3-yl]phenyl]-[3-hydroxy-3-(trifluoromethyl)azetidin-1-yl]methanone] | 2.4 nM | 19.7 nM | 20 nM |
| COc1cc(-c2c3c(OCCCCO)cc(-c4cnn(C)c4)cc3nn2C)cc(OC(F)F)c1C(=O)N1CC(O)(C(F)(F)F)C1 [Example 44, [2-(difluoromethoxy)-4-[4-(4-hydroxybutoxy)-2-methyl-6-(1-methylpyrazol-4-yl)indazol-3-yl]-6-methoxyphenyl]-[3-hydroxy-3-(trifluoromethyl)azetidin-1-yl]methanone] | 6.7 nM | 8.4 nM | 15.5 nM |
| COc1cc(-c2c3c(OC)cc(-c4cnn(C)c4)cc3nn2C)cc(OC(F)F)c1C(=O)N[C@@H]1CC1(F)F [Example 45, N-[(1R)-2,2-difluorocyclopropyl]-2-(difluoromethoxy)-6-methoxy-4-[4-methoxy-2-methyl-6-(1-methylpyrazol-4-yl)indazol-3-yl]benzamide] | 18.9 nM | 8.6 nM | 9.4 nM |
| COc1cc(-c2c3c(OCC[C@H](C)O)cc(-c4cnn(C)c4)cc3nn2C)cc(OC(F)F)c1C(=O)N1CC(O)(C(F)(F)F)C1 [Example 47, [2-(difluoromethoxy)-4-[4-[(3S)-3-hydroxybutoxy]-2-methyl-6-(1-methylpyrazol-4-yl)indazol-3-yl]-6-methoxyphenyl]-[3-hydroxy-3-(trifluoromethyl)azetidin-1-yl]methanone] | 9 nM | 16.2 nM | 19.2 nM |
| COc1cc(-c2c3c(OCc4cnccn4)cc(-c4cnn(C)c4)cc3nn2C)cc(OC(F)F)c1C(=O)N1CC(O)(C(F)(F)F)C1 [Example 48, [2-(difluoromethoxy)-6-methoxy-4-[2-methyl-6-(1-methylpyrazol-4-yl)-4-(pyrazin-2-ylmethoxy)indazol-3-yl]phenyl]-[3-hydroxy-3-(trifluoromethyl)azetidin-1-yl]methanone] | 3.5 nM | 10.6 nM | 11.2 nM |
| COc1cc(-c2c3c(OCc4cnc(C)s4)cc(-c4cnn(C)c4)cc3nn2C)cc(OC(F)F)c1C(=O)N1CC(O)(C(F)(F)F)C1 [Example 49, [2-(difluoromethoxy)-6-methoxy-4-[2-methyl-6-(1-methylpyrazol-4-yl)-4-[(2-methyl-1,3-thiazol-5-yl)methoxy]indazol-3-yl]phenyl]-[3-hydroxy-3-(trifluoromethyl)azetidin-1-yl]methanone] | 3.9 nM | 11.2 nM | 9.7 nM |
